In patent US20260345601A1, “FORMS OF CARBAMATE DERIVATIVES AND RELATED USES” (NodThera Limited, priority 2022, published 2026):
≈ marks a conversion by molar mass, not a printed value. Entries after “also recorded” stand apart in the source; their conditions may differ.

What was measured:
NLRP3 inflammasome = conditions: reported in literature; cited from earlier work
[1] = Chemical stability evaluation in solvents (Table F); type: physicochemical
Protocol: Chemical stability of this compound was evaluated in MeOH, Acetone, MEK, EtOAc, and IPAc at different temperature points.

[2] = Drying stability test (Table I); type: physicochemical; conditions: 50 °C under vacuum
[3] = Storage at 25 °C/97% RH and 40 °C/75% RH; type: physicochemical
Protocol: Chemical Purity Determination by High-Performance Liquid Chromatography (HPLC)
Purity analysis was performed on an Agilent HP1100/Infinity II 1260 series system equipped with a diode array detector and using OpenLAB software. The full method details are provided below:
Unless stated within the appropriate data tables, all HPLC purity data reported has been run using the HPLC Method No. 2.

[4] = Solubility of Form 1 in IPAc/Heptane system (Table E); type: physicochemical
Protocol: Solubility of Form 1 was further measured in IPAc/Heptane system with different ratio at 0-50 °C.

[5] = TGA (thermo-gravimetric analysis)/thermal analysis; type: physicochemical; conditions: for TGA weight loss before degradation: heated at 10 °C/min, nitrogen purge
Protocol: Thermo-Gravimetric Analysis (TGA)
TA Instruments Q500: TGA data were collected on a TA Instruments Q500 TGA, equipped with a 16 position auto-sampler. Typically, 5-10 mg of each sample was loaded onto a pre-tared aluminium DSC pan and heated at 10 °C/min from ambient temperature to 350 °C. A nitrogen purge at 60 ml/min was maintained over the sample. The instrument control software was Advantage for Q Series and Thermal Advantage and the data were analysed using Universal Analysis or TRIOS.

[6] = Solubility in single solvents, Form 2 as starting material (Table D); type: physicochemical; conditions: 20-25 °C
Protocol: Solubility of Form 1 was measured in several single solvents using Form 2 as starting material, respectively. […] Thus, MeOH, Acetone, MEK, EtOAc and IPAc were selected for further chemical stability evaluation before starting solubility test with anti-solvents.

[7] = Gravimetric vapour sorption (GVS); type: physicochemical; conditions: for GVS hygroscopicity / GVS hysteresis / GVS water uptake: 25 °C; for XRPD post GVS: form after GVS experiment
Protocol: Gravimetric Vapour Sorption (GVS)
Sorption isotherms were obtained using a SMS DVS Intrinsic moisture sorption analyser, controlled by DVS Intrinsic Control software. The sample temperature was maintained at 25 °C by the instrument controls. The humidity was controlled by mixing streams of dry and wet nitrogen, with a total flow rate of 200 ml/min. The relative humidity was measured by a calibrated Rotronic probe (dynamic range of 1.0-100% RH), located near the sample. The weight change, (mass relaxation) of the sample as a function of % RH was constantly monitored by a microbalance (accuracy±0.005 mg).
Typically, 5-30 mg of sample was placed in a tared mesh stainless steel basket under ambient conditions. The sample was loaded and unloaded at 40% RH and 25 °C (typical room conditions). A moisture sorption isotherm was performed as outlined below (2 scans per complete cycle). The standard isotherm was performed at 25 °C at 10% RH intervals over a 0-90% RH range. Typically, a double cycle (4 scans) was carried out. Data analysis was carried out within Microsoft Excel using the DVS Analysis Suite.
The sample was recovered after completion of the isotherm and re-analysed by XRPD.

[8] = Solubility in aqueous and biorelevant media (Table A); type: physicochemical
Text: Form 1 was characterized using a wide range of techniques to investigate the solid form and chemical properties (FIGS. 1-6B).

O=[N+]([O-])C=Cc1ccc2c(c1)OCO2 [3,4-methylenedioxy-β-nitrostyrene]
Effect on NLRP3 activation (NLRP3 inflammasome): impair NLRP3 activation

Cc1ccc(S(=O)(=O)/C=C/C#N)cc1 [Bay 11-7082]
Effect on NLRP3 activation (NLRP3 inflammasome): impair NLRP3 activation

CC(C)OC(=O)[C@@H](Cc1ncccn1)OC(=O)Nc1c2c(cc3c1CCC3)CCC2 [Compound A, propan-2-yl(2R)-2-{[(1,2,3,5,6,7-hexahydro-s-indacen-4-yl)carbamoyl]oxy}-3-(pyrimidin-2-yl) propanoate]
Chemical stability in words ([1]; Acetone and EtOAc, 23 h): slight degradation
Chemical stability: purity ([1]; Acetone, 40 °C, 0 h): 99.57%
Chemical stability: purity ([1]; Acetone, 40 °C, 5-6 h): 99.55%
Chemical stability: purity ([1]; Acetone, 40 °C, 23-24 h): 98.06%
Chemical stability: purity ([1]; EtOAc, 40 °C, 0 h): 99.49%
Chemical stability: purity ([1]; EtOAc, 40 °C, 5-6 h): 99.46%
Chemical stability: purity ([1]; EtOAc, 40 °C, 23-24 h): 99.46%
Chemical stability: purity ([1]; EtOAc, 50 °C, 0 h): 99.43%
Chemical stability: purity ([1]; EtOAc, 50 °C, 5-6 h): 99.31%
Chemical stability: purity ([1]; EtOAc, 50 °C, 23-24 h): 99.27%
Chemical stability: purity ([1]; IPAc, 50 °C, 0 h): 99.70%
Chemical stability: purity ([1]; IPAc, 50 °C, 5 h): 99.73%
Chemical stability in words ([1]; IPAc, 50 °C, 24 h): chemical stable
Chemical stability: purity ([1]; IPAc, 50 °C, 24 h): 99.76%
Chemical stability: purity ([1]; MEK, 40 °C, 0 h): 99.52%
Chemical stability: purity ([1]; MEK, 40 °C, 5-6 h): 99.51%
Chemical stability: purity ([1]; MEK, 40 °C, 23-24 h): 93.28%
Chemical stability: purity ([1]; MEK, 50 °C, 0 h): 99.38%
Chemical stability: purity ([1]; MEK, 50 °C, 5-6 h): 92.75%
Chemical stability: purity ([1]; MEK, 50 °C, 23-24 h): 87.20%
Chemical stability in words ([1]; MeOH and MEK, 23 h): serious degradation
Chemical stability: purity ([1]; MeOH, 50 °C, 0 h): 99.12%
Chemical stability: purity ([1]; MeOH, 50 °C, 5-6 h): 98.03%
Chemical stability: purity ([1]; MeOH, 50 °C, 23-24 h): 90.58%

CC(C)OC(=O)[C@@H](Cc1ncccn1)OC(=O)Nc1c2c(cc3c1CCC3)CCC2 [Form 1, propan-2-yl(2R)-2-{[(1,2,3,5,6,7-hexahydro-s-indacen-4-yl)carbamoyl]oxy}-3-(pyrimidin-2-yl) propanoate]
Drying stability: XRPD ([2]; 0 h): Form 1
Drying stability: purity ([2]; 0 h): 99.0%
Drying stability: XRPD ([2]; 22 h): Form 1
Drying stability: purity ([2]; 22 h): 99.1%
Drying stability: XRPD ([2]; 70 h): Form 1
Drying stability: purity ([2]; 70 h): 99.1%
Drying stability in words ([2]; total 70 h): no degradation and form change
Stability at elevated temperatures ([2]; total 70 h): chemically and physically stable at elevated temperatures
Storage: solid form ([3]; 25 °C/97% RH): Form 1
Storage: solid form ([3]; 40 °C/75% RH): Form 1
Solubility ([4]; IPAc/Heptane 1/0 (v/v), 30 °C): 59.5 mg/mL (≈ 145 mM)
Solubility ([4]; IPAc/Heptane 1/0 (v/v), 40 °C): 80.2 mg/mL (≈ 196 mM)
Solubility ([4]; IPAc/Heptane 1/0 (v/v), 50 °C): 170.6 mg/mL (≈ 417 mM)
Solubility ([4]; IPAc/Heptane 1/1 (v/v), 0-5 °C): 6.4 mg/mL (≈ 15.6 mM)
Solubility ([4]; IPAc/Heptane 1/1 (v/v), 30 °C): 12.1 mg/mL (≈ 29.5 mM)
Solubility ([4]; IPAc/Heptane 1/1 (v/v), 50 °C): 34.4 mg/mL (≈ 84 mM)
Solubility ([4]; IPAc/Heptane 1/2 (v/v), 0-5 °C): 3.4 mg/mL (≈ 8.3 mM)
Solubility ([4]; IPAc/Heptane 1/2 (v/v), 30 °C): 4.8 mg/mL (≈ 11.7 mM)
Solubility ([4]; IPAc/Heptane 1/2 (v/v), 50 °C): 18.0 mg/mL (≈ 44 mM)
Solubility ([4]; IPAc/Heptane 1/3 (v/v), 0-5 °C): 1.7 mg/mL (≈ 4.15 mM)
Solubility ([4]; IPAc/Heptane 1/3 (v/v), 30 °C): 2.9 mg/mL (≈ 7.08 mM)
Solubility ([4]; IPAc/Heptane 1/3 (v/v), 50 °C): 8.0 mg/mL (≈ 19.5 mM)
Solubility ([4]; IPAc/Heptane 2/1 (v/v), 30 °C): 27.7 mg/mL (≈ 67.6 mM)
Solubility ([4]; IPAc/Heptane 2/1 (v/v), 50 °C): 53.4 mg/mL (≈ 130 mM)
Solubility ([4]; IPAc/Heptane 3/1 (v/v), 50 °C): 65.2 mg/mL (≈ 159 mM)
Solubility ([4]; IPAc/Heptane 4/1 (v/v), 50 °C): 75.2 mg/mL (≈ 184 mM)
Solubility ([4]; IPAc/Heptane 9/1 (v/v), 50 °C): 120.0 mg/mL (≈ 293 mM)
XRPD form in solubility test ([4]; IPAc/Heptane, 0-50 °C, starting material Form 1): Form 1
Thermal stability by thermal analysis [5]: thermally stable
TGA weight loss before degradation [5]: no weight loss before degradation
Solubility ([6]; Acetone, starting material Form 2, XRPD Form 1): 167 mg/mL (≈ 408 mM)
Solubility ([6]; EtOAc, starting material Form 2, XRPD Form 1): 98 mg/mL (≈ 239 mM)
Solubility in words ([6]; EtOH and IPA): moderate solubility
Solubility ([6]; EtOH, starting material Form 2, XRPD Form 1): 45 mg/mL (≈ 110 mM)
Solubility ([6]; IPA, starting material Form 2, XRPD Form 1): 24 mg/mL (≈ 58.6 mM)
Solubility ([6]; IPAc, starting material Form 2, XRPD Form 1): 48 mg/mL (≈ 117 mM)
Solubility ([6]; MEK, starting material Form 2, XRPD Form 1): 175 mg/mL (≈ 427 mM)
Solubility ([6]; MeOH, starting material Form 2, XRPD Form 1): 77 mg/mL (≈ 188 mM)
Solubility in words ([6]; MeOH, Acetone, MEK, EtOAc and IPAc): good solubility
Solubility in words ([6]; n-heptane and water): poor solubility
Solubility ([6]; n-heptane, starting material Form 2, XRPD Form 1): 3 mg/mL (≈ 7.33 mM)
GVS hygroscopicity [7]: Non-hygroscopic
GVS hysteresis [7]: no hysteresis
GVS water uptake ([7]; 0-90% RH): <0.1% water uptake between 0-90% RH
GVS water uptake ([7]; 40-90% RH): < 0.1%
XRPD post GVS [7]: remained as Form 1
Solubility ([8]; fassif): 26 µg/mL (≈ 0.0635 mM)
Solubility ([8]; fessif): 14 µg/mL (≈ 0.0342 mM)
Solubility ([8]; pH = 1.2): < 10 µg/mL
Solubility ([8]; pH = 5): < 10 µg/mL
Solubility ([8]; pH = 6.5): < 10 µg/mL
Solubility ([8]; pH = 7.4): < 10 µg/mL
Solubility ([8]; pH = 8.5): < 10 µg/mL
Solubility ([8]; sgf): 4.7 µg/mL (≈ 0.0115 mM)

CC(C)OC(=O)[C@@H](Cc1ncccn1)OC(=O)Nc1c2c(cc3c1CCC3)CCC2 [Form 2, propan-2-yl(2R)-2-{[(1,2,3,5,6,7-hexahydro-s-indacen-4-yl)carbamoyl]oxy}-3-(pyrimidin-2-yl) propanoate]
Storage: solid form ([3]; 25 °C/97% RH): Crystalline - Form 2
Stability at elevated storage ([3]; 25 °C/97% RH and 40 °C/75% RH for 1 week): stable
Storage: solid form ([3]; 40 °C/75% RH): Crystalline - Form 2
Stability of solid form at elevated conditions ([3]; elevated conditions): stable at elevated conditions
TGA weight loss before degradation [5]: No weight loss before degradation
Form conversion after slurry (XRPD) ([6]; all selected solvents except water): converted to Form 1
Form after slurry (XRPD) ([6]; H2O, starting material Form 2): Form 2
Solubility ([6]; H2O, starting material Form 2, XRPD Form 2): 1 mg/mL (≈ 2.44 mM)
GVS hygroscopicity [7]: Non-hygroscopic
GVS hysteresis [7]: no hysteresis
GVS water uptake ([7]; 0-90% RH): ~0.15% reversible uptake from 0-90% RH
GVS water uptake ([7]; 40-90% RH): 0.09%
XRPD post GVS [7]: remained Form 2; also recorded: Crystalline - Form 2

NC[C@@H]1O[C@H](c2ccccc2)Cc2c1ccc(O)c2O [Form A-68930]
Effect on NLRP3 activation (NLRP3 inflammasome): impair NLRP3 activation

COc1ccc(Cl)cc1C(=O)NCCc1ccc(S(=O)(=O)NC(=O)NC2CCCCC2)cc1 [Glyburide]
Concentration of NLRP3 inhibition in words (NLRP3 inflammasome): micromolar concentrations
Effect on NLRP3 activation (NLRP3 inflammasome): specific inhibitor of NLRP3 activation

OC[C@H]1O[C@@H](c2ccc(Cl)c(Cc3ccc(O[C@H]4CCOC4)cc3)c2)[C@H](O)[C@@H](O)[C@@H]1O [epigliflozin]
Effect on NLRP3 activation (NLRP3 inflammasome): impair NLRP3 activation

CNCCC(Oc1ccc(C(F)(F)F)cc1)c1ccccc1 (stereo not drawn) [fluoxetine]
Effect on NLRP3 activation (NLRP3 inflammasome): impair NLRP3 activation

OC(CNCC(O)C1CCc2cc(F)ccc2O1)C1CCc2cc(F)ccc2O1 (stereo not drawn) [nebivolol]
Effect on NLRP3 activation (NLRP3 inflammasome): impair NLRP3 activation

C=C1C(=O)O[C@H]2[C@H]1CC/C(C)=C/CC[C@@]1(C)O[C@@H]21 [parthenolide]
Effect on NLRP3 activation (NLRP3 inflammasome): impair NLRP3 activation

O=c1c(O)c(-c2ccc(O)c(O)c2)oc2cc(O)cc(O)c12 [quercetin]
Effect on NLRP3 activation (NLRP3 inflammasome): suppress NLRP3 activation

C[S+]([O-])CCCCN=C=S (stereo not drawn) [sulforaphane]
Effect on NLRP3 activation (NLRP3 inflammasome): suppress NLRP3 activation
